“And” between values parts separate entries of the source, which are not always exact repeats. Equal values may be shown once. Read-outs that look alike come from different tables or passages of the source. Blank lines part the entries; values can stand above or below the compound they belong to.
Assays:
[1] = molecular target: T1, ERα (Homo sapiens, UniProt P03372); experiment: (ERE)3-luciferase reporter gene assay in T47D-KBluc cells; type: cell-based; design: Using a stably transfected breast cancer cell line that expresses endogenous ERα; endogenous in cells; host or cells: T47D-KBluc
T1 sequence (P03372 1-595): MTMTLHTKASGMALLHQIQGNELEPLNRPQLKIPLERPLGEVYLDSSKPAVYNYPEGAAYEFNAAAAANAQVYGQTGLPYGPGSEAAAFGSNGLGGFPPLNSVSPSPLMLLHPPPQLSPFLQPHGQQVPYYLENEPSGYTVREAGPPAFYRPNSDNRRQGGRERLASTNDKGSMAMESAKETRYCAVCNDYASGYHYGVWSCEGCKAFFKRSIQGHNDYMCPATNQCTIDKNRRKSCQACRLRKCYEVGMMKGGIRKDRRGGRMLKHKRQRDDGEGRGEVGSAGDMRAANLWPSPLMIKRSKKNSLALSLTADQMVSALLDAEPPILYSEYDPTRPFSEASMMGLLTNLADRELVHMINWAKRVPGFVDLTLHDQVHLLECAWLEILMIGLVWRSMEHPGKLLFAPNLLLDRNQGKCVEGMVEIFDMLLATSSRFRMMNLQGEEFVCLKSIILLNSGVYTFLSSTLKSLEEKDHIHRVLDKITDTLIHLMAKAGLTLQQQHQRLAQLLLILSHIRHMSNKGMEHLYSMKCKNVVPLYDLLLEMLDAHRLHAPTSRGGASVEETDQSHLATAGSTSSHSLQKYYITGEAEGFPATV
Protocol: The T47D-KBluc cells stably express an (ERE)3-luciferase reporter gene (38). […] Four days before E2 induction, the cells were switched to the above medium, with 10% 2× charcoal-dextran-treated calf serum instead of FBS. 200,000 cells/well were transferred to each well of a 24-well plate. After 24 h the indicated concentrations of the test compounds were added in DMSO and E2 was added to 20 pM. After 24 h cells were washed once in PBS, and 150 μl 1× Passive Lysis Buffer (Promega, Madison Wis.) was used to lyse the cells. Luciferase activity was determined using firefly luciferase reagents from Promega (Madison, Wis.).
Reporter Gene Assays. […] AR was assayed in stably transfected HeLa cells and GR was assayed in stably transfected T47D cells maintained as described above. Four days before each experiment the cells were switched to medium containing CD-treated serum as described above. The HeLaAR cells were plated at 100,000 cells/well and the T47D/A1-2 and T47D-KBluc cells were plated at 200,000 cells/well in 1 ml of their respective media in 24-well plates. After 24 hours the indicated concentrations of E2, dihydrotestosterone (DHT) or dexamethasone (Dex) and DMSO vehicle, with or without TPSF, were added to each well. After 24 hours, the cells were washed once in phosphate buffered saline and lysed using 100 μl of 1× Passive Lysis Buffer (Promega, Madison Wis.). Luciferase activity was determined using BrightGlo firefly luciferase reagent from Promega (Madison, Wis.).

[2] = molecular target: T2, human ERα binding to flcERE (Homo sapiens, UniProt P03372); experiment: FAMA: inhibition of ERα binding to flcERE; conditions: for IC50: FAMA; for inhibition of binding of ERα to the flcERE: 5 μM TPBM
T2 construct: Full-length FLAG-tagged human ERα was expressed and purified as described previously (27); FLAG; made in house
T2 sequence (P03372 1-595): T1 sequence (P03372 1-595)
Protocol: Prior to screening, the 10 mM library stocks were diluted to produce replica libraries in 384-well plates containing each small molecule at 0.25 mM (in DMSO). In our initial studies we were concerned that forming the flcERE-ERα complex first and then adding the candidate small molecule inhibitors would miss small molecules that bind at the interface. We therefore screened using the “sequential” method in which the candidate small molecules were first incubated with ERα and followed by addition of the flcERE. The assay for binding of ERα to the flcERE is a modification of our earlier assay (27). Assays were carried out at room temperature in black wall 384-well microplates (Greiner/Bio-One) in a total volume of 10 μl in buffer containing 20 mM Tris pH 7.5, 10% glycerol, 0.2 mM EDTA, 2 mM DTT, 100 mM KCl, 0.5 ng/μl poly dl:dC, […] bovine serum albumin and 100 nM 17β-estradiol (E2). For high throughput screening, a master mix without ERα and probe was prepared at 4° C. The master mix was divided into 2 parts. ERα was added to one part to 5 nM in the final assays. 7 μl of the ERα-containing mix was then dispensed into each well of a 384-well plate on ice. 100 nl of the compounds being tested was then added using a pin-transporter (V & P Scientific, Inc, CA) to a final concentration of 2.5 μM. The samples were mixed using the pin-transporter and sedimented by centrifugation for 2 min. at 4° C. and incubated on ice for 10 min. The flcERE probe was added to the other aliquot of the mix to 1 nM. 3 μl of the mix containing the flcERE probe was added to each well containing ERα and the test compound. The samples were mixed using the pin-transporter, the plates were briefly centrifuged and incubated at room temperature for 10 min. and fluorescence anisotropy (FA) was measured using a BMG PheraStar (BMG Labtech) microplate reader (module: 485 520) with excitation at 485λ and emission at 520λ. To identify small molecules that were highly fluorescent, or quench fluorescence, fluorescence intensity was also measured.
Dose response curves for selected compounds were carried out as described for the HTS screen except that each well contained the indicated concentration of test compound. PR assays were carried out in the same buffer used for ERα assays and contained 1 nM flcPRE and 11 nM PR-B and 100 nM progesterone. The buffer used for AR was similar but also contained 5 μM ZnCl, 5 mM NaF, 0.6 μM CHAPS and 100 nM dihydrotestosterone. AR assays contained 1 nM flcARE and 50 nM full-length wild-type AR.

[3] = T47D-KBluc cells, 20 pM E2, 24 h, read-out: IC50 for inhibition of E2 dependent ERα transactivation, (ERE)3-luciferase
[4] = binding to HRE, 5 concentrations 0.5-10 μM, sequential method, read-out: IC50 ERα

IC50 [1, 3]: 22 µM
IC50 [2, 4]: 4 µM
SMILES: CN1CCC(C#N)c2ccccc21 (centres unmarked) [Compound 1529]

ER at 10 μM [1]: 20
SMILES: CCCSc1nc2c([nH]1)c(=O)n(C)c(=S)n2C [Compound 95869, 1,3-Dimethyl-8-propylsulfanyl-2-thioxo-1,2,3,7-tetrahydro-purin-6-one]

ER at 10 μM [1]: 36
SMILES: Cn1c(=O)c2[nH]c(SC3CCCCC3)nc2n(C)c1=S [Compound 95899, 8-Cyclohexylsulfanyl-1,3-dimethyl-2-thioxo-1,2,3,7-tetrahydro-purin-6-one]

inhibition of binding of ERα to the flcERE ([2]; absence of zinc): 76±7%
inhibition of binding of ERα to the flcERE ([2]; presence of 50 μM zinc): 68±6%
IC50 [2, 4]: 3 µM
IC50 ([2]; read-out: IC50 for inhibition of ERα binding to the flcERE): ~3 µM and 3.5 µM
SMILES: Cn1c(=O)c2nc(CSCc3ccccc3)[nH]c2n(C)c1=O [Compound 95910, 8-Benzylsulfanylmethyl-1,3-dimethyl-3,7-dihydro-purine-2,6-dione]

ER at 10 μM [1]: 0
SMILES: Cn1c(=O)c2[nH]c(C3CC4CCC3C4)nc2n(C)c1=O (centres unmarked) [Compound 101807, 8-Bicyclo[2.2.1]hept-2-yl-1,3-dimethyl-3,7-dihydro-purine-2,6-dione]

IC50 [1, 3]: 0.8 µM
IC50 [2, 4]: 2.5 µM
SMILES: CN(C)CCCn1c2c3ccccc3ccc2c2oc(=O)c3ccccc3c21 [Compound 638432]

concentrations necessary to inhibit AR and GR relative to average IC50 for the two ER-regulated genes (higher) [1]: 20-70 fold
potency as ERα inhibitor relative to TPBM (more potent) [1]: > 15 fold
IC50 ([1]; PI-9 in MCF-7 and (ERE)3-Luc in T47D, read-out: average IC50 for inhibition of the two ER-regulated genes): 0.45 µM
SMILES: Cn1c(=S)c2[nH]c(SCCCC(=O)c3ccc(F)cc3)nc2n(C)c1=O [TPSF, Butyrophenone, p-fluoro-4-(1,2,3,6,-tetrahydro-1,3-dimethyl-2-oxo-6-thionopurin-8-ylthio)]
